From US10059723B2 (BIOMARIN PHARMACEUTICAL INC., priority 2011, dated 2018)

Legend:
[1] = tested on: GM 15850 (lymphoblastoid cells line) cells; assay: In-cell deacetylase inhibition assay (DAC assay); format: cell-based; conditions: Homo sapiens, GM15850; GM 15850 cells, 4 h incubation; read-out: 850 DAC (in-cell deacetylase inhibition IC50)
Procedure: Compound dilutions were made in 100% DMSO followed by parallel dilution in media with 2% DMSO. 10 μl of the compound dilutions were added to the cells to achieve the desired concentrations. The final concentration of DMSO in each well was 0.2%. The cells were incubated for 4 h at 37° C. with 5% CO2. After incubation, the cells were centrifuged down and the supernatant was removed. […] The reaction was stopped after 30 min incubation by addition of 50 μL developer (6 mg/mL trypsin in HDAC assay buffer). The reaction was allowed to develop for 30 min at room temperature and the fluorescence signal was detected using a fluorometer (Spectramax M2, Molecular Devices, Sunnyvale, Calif.) with excitation and emission wavelengths of 360 nm and 470 nm respectively. The data was fitted to a sigmoidal dose response equation with variable slope in GraphPad Prism 5.0 (GraphPad Software, La Jolla, Calif.) to determine IC50. Bottom and top of the curve were fixed to the average fluorescence response of control wells with no cells and cells but no compound respectively.

[2] = Brain penetration studies;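 note: compound levels in brain and plasma quantified by LC/MS/MS, sampled from pre-dose up to 4 h after dosing, three mice per dose and time point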; format: in vivo; conditions: C57/BL6/J, mouse, brain and plasma; mice, s.c. 5 or 50 mg/kg or i.v. 5 mg/kg; read-out: BPR (brain/plasma ratio, Cmax(brain)/Cmax(plasma))
Procedure: Test compounds were prepared at either 0.5 mg/ml or 5 mg/ml in 30% hydroxypropyl-β-cyclodextrin, 100 mM sodium acetate pH 5.5, 5% DMSO. C57/BL6/J mice were dosed s.c. at 5 mg/kg or 50 mg/kg, or i.v. at 5 mg/kg. Animals were euthanized at pre-dose, 5, 15, 30 min, 1, 2 and 4 hours post-dose and plasma and brain obtained. Three animals per dose per time points were used. The levels of compound in the plasma and brain were determined by standard LC/MS/MS methods. Brain/plasma ratio (BPR) was calculated as the ratio of the Cmax(brain)/Cmax(plasma).

HDAC1 = molecular target: T1, HDAC1 (Homo sapiens, UniProt Q13547); assay: HDAC activity inhibition assay, HDAC1; format: biochemical; conditions: 2 hours pre-incubation, Fluor-de-Lys substrate 10 μM
T1 construct: purchased BPS Bioscience 50051
T1 sequence (Q13547 whole entry): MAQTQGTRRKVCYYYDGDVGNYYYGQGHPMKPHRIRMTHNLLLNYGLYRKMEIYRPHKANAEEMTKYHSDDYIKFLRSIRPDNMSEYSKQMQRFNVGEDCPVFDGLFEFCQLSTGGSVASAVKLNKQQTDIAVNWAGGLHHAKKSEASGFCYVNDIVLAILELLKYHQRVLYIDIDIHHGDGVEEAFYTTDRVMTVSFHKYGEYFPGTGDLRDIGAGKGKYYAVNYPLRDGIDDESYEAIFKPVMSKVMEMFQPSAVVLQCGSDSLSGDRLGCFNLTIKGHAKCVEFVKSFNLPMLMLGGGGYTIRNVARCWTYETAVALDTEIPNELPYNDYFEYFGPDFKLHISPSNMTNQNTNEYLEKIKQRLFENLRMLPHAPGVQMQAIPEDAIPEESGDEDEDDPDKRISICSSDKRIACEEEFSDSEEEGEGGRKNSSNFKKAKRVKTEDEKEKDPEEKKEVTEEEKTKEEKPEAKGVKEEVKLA
Procedure: The HDAC activity inhibition assay was performed as follows to determine the ability of a test compound to inhibit HDAC enzymatic activity. […] Following pre-incubation, Fluor-de-Lys™ substrate (Enzo Life Sciences, Plymouth Meeting, Pa., BML-KI104-0050) was added to a final concentration of 10 μM and plates were further incubated for 30 minutes at room temperature. […] IC50 values were calculated by using a sigmoidal dose-response (variable slope) equation in GraphPad Prism® 5 for Windows (GraphPad Software, La Jolla, Calif.).

HCT116 cells = assay: Cell proliferation assay; format: cell-based; conditions: Homo sapiens, HCT-116, 72 h, read-out: Hct-116 (anti-proliferation IC50)
Procedure: HCT116 cells (5000 cells/well) in 80 μL McCoy's 5A medium containing 10% v/v FBS, 1% v/v penicillin/streptomycin and 1% v/v L-glutamine were incubated in 96-well plates with compounds at various concentrations for 72 h at 37° C. in a 5% CO2 atmosphere. The compound dilutions were made in 100% DMSO followed by parallel dilutions in media. The final concentration of DMSO in each well was 0.05%. After 72 h, 20 μL of Cell titer 96 aqueous one solution (Promega Corporation, Madison, Wis.) were added to the cells and the plate was incubated at 37° C. for another 4 h. The absorbance at 490 nm was then recorded on a 96-well plate reader (Spectramax M2, Molecular Devices, Sunnyvale, Calif.). Data analysis was performed in Microsoft Excel (Microsoft Corp, Redmond, Wash.).

C57BL/6J male mice = assay: Long term memory for object recognition; format: in vivo; conditions: s.c. 3, 10, 30 mg/kg
Procedure: C57BL/6J male mice were handled 1-2 min for 5 days and were habituated to the experimental apparatus 5 min a day for 4 consecutive days in the absence of objects. […] 24-h later mice were tested for memory retention (5 min) using the object recognition memory task (ORM), in which a familiar object was replaced with a novel one. All training and testing trials were videotaped and analyzed by individuals blind to the treatment condition and the genotype of subjects. A mouse was scored as exploring an object when its head was oriented toward the object within a distance of 1 cm or when the nose was touching the object. The relative exploration time was recorded and expressed by a discrimination index [DI=(tnovel−tfamiliar)/(tnovel+tfamiliar)×100].

SMILES | IC50 [1] [µM] | Kp [2] | IC50 (HDAC1) [µM] | IC50 (HCT116 cells) [µM] | dose dependence of the effect on long-term memory (C57BL/6J male mice)
Nc1ccccc1NC(=O)/C=C/c1cc2ccccn2n1 [A8] | 10 to 20 | 0.5 to 1 | – | – | –
Nc1ccccc1NC(=O)/C=C/c1cnn(CCOc2cc(F)cc(F)c2)c1 [B3, (E)-N-(2-aminophenyl)-3-(1-(2-(3,5-difluorophenoxy)ethyl)-1H-pyrazol-4-yl)acrylamide] | 1 to 5 | 0.2 to 0.5 | – | – | –
Cn1cc(/C=C/C(=O)Nc2ccc(F)cc2N)cn1 [C2] | – | – | > 20 | – | –
Nc1ccccc1NC(=O)/C=C/c1cnn(CCOCc2ccccc2)c1 [D14] | 5 to 10 | – | – | – | –
CCOCc1cn2cc(/C=C/C(=O)Nc3ccccc3N)sc2n1 [E1, (E)-N-(2-aminophenyl)-3-(6-(ethoxymethyl)imidazo[2,1-b]thiazol-2-yl)acrylamide] | > 20 | – | – | – | –
Nc1ccccc1NC(=O)/C=C/c1csc(CC=Cc2ccccc2)n1 [E2, (E)-N-(2-aminophenyl)-3-(2-cinnamylthiazol-4-yl)acrylamide] | 10 to 20 | > 1 | – | > 20 | –
Cn1cnc(/C=C/C(=O)Nc2ccccc2N)c1 [A12] | > 20 | – | – | – | –
Nc1ccccc1NC(=O)c1ccc(C=C2CCN(Cc3cccnc3)CC2)cc1 [F2] | 10 to 20 | > 1 | – | < 5 | –
CN1CCC(Cn2cc(/C=C/C(=O)Nc3ccccc3N)cn2)CC1 [G1, (E)-N-(2-aminophenyl)-3-(1-((1-methylpiperidin-4-yl)methyl)-1H-pyrazol-4-yl)acrylamide] | – | – | – | > 20 | –
Nc1ccccc1NC(=O)/C=C/c1cn2ccnc2s1 [A10] | 10 to 20 | 0.2 to 0.5 | – | – | –
Cc1ncc(/C=C/C(=O)Nc2ccccc2N)s1 [A3] | > 20 | – | – | – | –
Nc1ccccc1NC(=O)/C=C/c1cnn(CC(F)(F)c2ccccc2)c1 [D10] | 5 to 10 | 0.5 to 1 | – | > 20 | –
Nc1ccccc1NC(=O)/C=C/c1cnn(CCc2c[nH]c3ccccc23)c1 [D13] | 1 to 5 | < 0.1 | – | – | –
Cc1nn(C/C=C/c2ccccc2)c(C)c1/C=C/C(=O)Nc1ccccc1N [G2, (E)-N-(2-aminophenyl)-3-(1-cinnamyl-3,5-dimethyl-1H-pyrazol-4-yl)acrylamide] | – | – | – | > 20 | –
Nc1ccccc1NC(=O)/C=C/c1cnn(CCOc2ccccc2)c1 [D3, (E)-N-(2-aminophenyl)-3-(1-(2-phenoxyethyl)-1H-pyrazol-4-yl)acrylamide] | 1 to 5 | 0.2 to 0.5 | – | < 5 | –
Cc1cccc(Cn2cc(/C=C/C(=O)Nc3ccccc3N)cn2)n1 [D6] | 10 to 20 | < 0.1 | – | > 20 | –
Nc1ccccc1NC(=O)/C=C/c1cnn(-c2ccccc2)c1 [A11] | – | > 1 | – | – | –
Nc1ccccc1NC(=O)/C=C/c1cnn(CCc2ccccc2)c1 [D7] | 5 to 10 | 0.5 to 1 | – | < 5 | –
Nc1ccccc1NC(=O)/C=C/c1cnn(Cc2ccccc2)c1 [D4] | 5 to 10 | 0.2 to 0.5 | – | > 20 | –
CCn1cc(/C=C/C(=O)Nc2ccccc2N)cn1 [C1] | > 20 | 0.5 to 1 | – | – | –
Nc1ccccc1NC(=O)c1ccc(C=C2CN(Cc3ccc4cc[nH]c4c3)C2)c(Cl)c1 [F5, 4-((1-((1H-Indol-6-yl)methyl)azetidin-3-ylidene)methyl)-N-(2-aminophenyl)-3-chlorobenzamide] | 5 to 10 | – | – | – | –
CN(CCCn1cc(/C=C/C(=O)Nc2ccccc2N)cn1)c1ccccc1 [D12] | 1 to 5 | 0.5 to 1 | – | – | –
Nc1cc(F)ccc1NC(=O)/C=C/c1cnn(C/C=C/c2ccccc2)c1 [D2, (E)-N-(2-amino-4-fluorophenyl)-3-(1-cinnamyl-1H-pyrazol-4-yl)acrylamide] | > 20 | 0.2 to 0.5 | – | > 20 | no effect of dose

SMILES | IC50 [1] [µM] | Kp [2] | IC50 (HDAC1) [µM] | IC50 (HCT116 cells) [µM] | dose dependence of the effect on long-term memory (C57BL/6J male mice)
Cc1nc(/C=C/C(=O)Nc2ccccc2N)cs1 [A1] | > 20 | 0.5 to 1 | – | – | –
Cn1cc(/C=C/C(=O)Nc2ccccc2N)cn1 [A2] | 10 to 20 | 0.5 to 1 | – | > 20 | –
Cn1cc(/C=C/C(=O)Nc2cc(F)ccc2N)cn1 [C3] | > 20 | – | – | – | –
Nc1ccccc1NC(=O)/C=C/c1cnn(CC/C=C/c2ccccc2)c1 [D11] | 1 to 5 | > 1 | – | – | –
Cc1cc(/C=C/C(=O)Nc2ccccc2N)on1 [A5] | – | 0.2 to 0.5 | – | – | –
Nc1ccccc1NC(=O)c1ccc(C=C2CN(Cc3cccnc3)C2)c(Cl)c1 [F6] | 10 to 20 | – | – | – | –
Nc1ccccc1NC(=O)/C=C/c1cnc2ccccn12 [A6, (E)-N-(2-aminophenyl)-3-(imidazo[1,2-a]pyridin-3-yl)acrylamide] | > 20 | 0.1 to 0.2 | – | 10 to 20 | –
Nc1ccccc1NC(=O)c1ccc(CC2CN(Cc3ccc4cc[nH]c4c3)C2)cc1 [F4] | 1 to 5 | 0.5 to 1 | – | < 5 | –
Nc1ccccc1NC(=O)/C=C/c1cnn(CCCCc2ccccc2)c1 [D9] | 1 to 5 | 0.5 to 1 | – | 5 to 10 | –
Cc1ccc(C(=O)NCCCCCC(=O)Nc2ccc(F)cc2N)cc1 [RGFP 136, reference compound] | – | – | – | – | Dose dependent effects
Nc1ccccc1NC(=O)c1ccc(C=C2CCN(C(=O)OCc3ccccc3)CC2)cc1 [F1] | > 20 | < 0.1 | – | – | –
Nc1ccccc1NC(=O)/C=C/c1cnn(CC2CC2)c1 [B1] | 10 to 20 | – | – | – | –
Nc1ccccc1NC(=O)/C=C/c1cnn(CCOc2ccc(C(F)(F)F)cc2)c1 [B4] | 10 to 20 | 0.2 to 0.5 | – | – | –
Nc1ccccc1NC(=O)/C=C/c1cnn(CCOc2ccc(F)cc2)c1 [B6] | 5 to 10 | – | – | – | –
Nc1ccccc1NC(=O)/C=C/c1cnn(Cc2ccc(F)cc2)c1 [D5] | 5 to 10 | 0.1 to 0.2 | – | > 20 | –
Nc1ccccc1NC(=O)/C=C/c1cnn(CCCOc2ccccc2)c1 [D15] | 1 to 5 | – | – | – | –
Nc1ccccc1NC(=O)/C=C/c1cn2ccccc2n1 [A9] | > 20 | – | – | – | –
Cn1ccc(/C=C/C(=O)Nc2ccccc2N)n1 [A7] | > 20 | 0.5 to 1 | – | – | –
Nc1ccccc1NC(=O)/C=C/c1cnn(CCOc2cc(F)cc(Cl)c2)c1 [B5, (E)-N-(2-aminophenyl)-3-(1-(2-(3-chloro-5-fluorophenoxy)ethyl)-1H-pyrazol-4-yl)acrylamide] | 5 to 10 | 0.2 to 0.5 | – | – | –
Nc1cc(F)ccc1NC(=O)/C=C/c1cnn(CCOc2ccccc2)c1 [D16] | 10 to 20 | – | – | – | –
Nc1ccccc1NC(=O)/C=C/c1cnn(CCCc2ccccc2)c1 [D8] | 1 to 5 | 0.2 to 0.5 | – | < 5 | –
Nc1ccccc1NC(=O)/C=C/c1cnn(C/C=C/c2ccc(F)cc2)c1 [B2] | 5 to 10 | – | – | – | –
Nc1ccccc1NC(=O)c1ccc(C=C2CN(Cc3ccc4cc[nH]c4c3)C2)cc1 [F3] | 1 to 5 | 0.2 to 0.5 | – | < 5 | –
